According to the OligoGym collection:
Oligonucleotides are written 5' to 3', each unit as a sugar letter and its base; * is a phosphorothioate linkage, no mark a phosphodiester; rarer units and linkages stand in square brackets, end groups in braces. Plain capitals give the bases only. d = 2'-deoxy (DNA); r = 2'-OH (RNA)

Biological target: UBE2L6
Test: reporter assay of Huesken 2005
Settings: siRNA
Note: test concentration or dose not given here.

Substance	normalised inhibition (eCFP-eYFP dual reporter)
sense rCrGrCrUrCrUrCrCrUrCrCrUrArCrCrCrGrArCdTdT / antisense rGrUrCrGrGrGrUrArGrGrArGrGrArGrArGrCrGdTdG	73.7%
sense rArUrCrArGrCrArGrUrGrArGrArArCrUrGrGrAdTdT / antisense rUrCrCrArGrUrUrCrUrCrArCrUrGrCrUrGrArUdGdA	82.9%
sense rUrUrCrArArGrCrCrUrCrCrCrArUrGrArUrCrAdTdT / antisense rUrGrArUrCrArUrGrGrGrArGrGrCrUrUrGrArAdCdG	71.2%
sense rCrArCrArArCrCrArArGrArUrCrUrArCrCrArCdTdT / antisense rGrUrGrGrUrArGrArUrCrUrUrGrGrUrUrGrUrGdAdA	45.8%
sense rCrArArArUrUrCrArCrArArCrCrArArGrArUrCdTdT / antisense rGrArUrCrUrUrGrGrUrUrGrUrGrArArUrUrUrGdAdT	85.9%
sense rCrGrArUrGrArUrGrCrCrArArUrGrUrCrCrUrGdTdT / antisense rCrArGrGrArCrArUrUrGrGrCrArUrCrArUrCrGdCdT	97.1%
sense rUrCrUrArCrCrArCrCrCrCrArArCrGrUrGrGrAdTdT / antisense rUrCrCrArCrGrUrUrGrGrGrGrUrGrGrUrArGrAdTdC	53%
sense rGrUrUrCrArCrCrCrUrCrCrGrArUrUrCrGrGrAdTdT / antisense rUrCrCrGrArArUrCrGrGrArGrGrGrUrGrArArCdTdC	61.1%
sense rCrArGrCrArGrUrGrArGrArArCrUrGrGrArArGdTdT / antisense rCrUrUrCrCrArGrUrUrCrUrCrArCrUrGrCrUrGdAdT	74.9%
sense rArCrUrUrGrCrCrArArGrUrCrCrUrGrGrArGrGdTdT / antisense rCrCrUrCrCrArGrGrArCrUrUrGrGrCrArArGrUdCdT	31.8%
sense rArArCrCrUrGrCrGrCrArUrCrArGrCrUrUrCrCdTdT / antisense rGrGrArArGrCrUrGrArUrGrCrGrCrArGrGrUrUdGdA	51.6%
sense rUrGrUrGrCrUrGrGrUrGrArArUrArGrArCrCrGdTdT / antisense rCrGrGrUrCrUrArUrUrCrArCrCrArGrCrArCrAdTdT	59%
sense rArCrCrCrGrArCrCrArArCrCrUrCrCrCrUrArCdTdT / antisense rGrUrArGrGrGrArGrGrUrUrGrGrUrCrGrGrGrUdAdG	64%
sense rUrCrCrUrGrGrArGrGrCrCrCrUrCrArArUrGrUdTdT / antisense rArCrArUrUrGrArGrGrGrCrCrUrCrCrArGrGrAdCdT	74.2%
sense rArCrArCrArGrArArUrCrCrGrGrArGrCrUrGrUdTdT / antisense rArCrArGrCrUrCrCrGrGrArUrUrCrUrGrUrGrUdCdA	85.4%
sense rUrCrUrCrCrUrCrCrUrArCrCrCrGrArCrCrArAdTdT / antisense rUrUrGrGrUrCrGrGrGrUrArGrGrArGrGrArGrAdGdC	79.9%
sense rGrGrArGrCrUrGrUrUrCrArGrArArArGrArArUdTdT / antisense rArUrUrCrUrUrUrCrUrGrArArCrArGrCrUrCrCdGdG	108%
sense rCrUrCrCrUrArCrCrCrGrArCrCrArArCrCrUrCdTdT / antisense rGrArGrGrUrUrGrGrUrCrGrGrGrUrArGrGrArGdGdA	63.5%
sense rCrCrCrArUrGrArUrCrArArArUrUrCrArCrArAdTdT / antisense rUrUrGrUrGrArArUrUrUrGrArUrCrArUrGrGrGdAdG	95.2%

Biological target: NOG
Test: reporter assay of Huesken 2005
Settings: siRNA

Substance	normalised inhibition (eCFP-eYFP dual reporter)
sense rCrCrArCrArUrCrCrGrCrCrCrGrGrCrArCrCrCdTdT / antisense rGrGrGrUrGrCrCrGrGrGrCrGrGrArUrGrUrGrGdAdG	51.4%
sense rCrArGrCrGrCrCrUrArArGrCrArArGrArArGrCdTdT / antisense rGrCrUrUrCrUrUrGrCrUrUrArGrGrCrGrCrUrGdCdT	62.6%
sense rCrGrCrUrGrCrUrGrCrGrCrUrCrGrCrUrGrCrUdTdT / antisense rArGrCrArGrCrGrArGrCrGrCrArGrCrArGrCrGdTdC	73.4%
sense rGrGrCrGrGrCrCrArGrCrArCrUrArUrCrUrCrCdTdT / antisense rGrGrArGrArUrArGrUrGrCrUrGrGrCrCrGrCrCdGdG	87.4%
sense rGrCrCrCrGrGrCrArCrCrCrArGrCrGrArCrArAdTdT / antisense rUrUrGrUrCrGrCrUrGrGrGrUrGrCrCrGrGrGrCdGdG	88.4%
sense rCrCrArGrCrUrGrCrUrGrCrGrGrCrArGrCrGrGdTdT / antisense rCrCrGrCrUrGrCrCrGrCrArGrCrArGrCrUrGrGdTdC	78.3%
sense rCrCrCrArGrCrGrArCrArArCrCrUrGrCrCrCrCdTdT / antisense rGrGrGrGrCrArGrGrUrUrGrUrCrGrCrUrGrGrGdTdG	68.1%
sense rArCrUrArUrCrUrCrCrArCrArUrCrCrGrCrCrCdTdT / antisense rGrGrGrCrGrGrArUrGrUrGrGrArGrArUrArGrUdGdC	52.8%
sense rArCrCrUrCrArUrCrGrArArCrArCrCrCrArGrAdTdT / antisense rUrCrUrGrGrGrUrGrUrUrCrGrArUrGrArGrGrUdCdC	102%
sense rGrArGrCrUrGrGrArCrCrArGrCrUrGrCrUrGrCdTdT / antisense rGrCrArGrCrArGrCrUrGrGrUrCrCrArGrCrUrCdCdG	71.8%
sense rGrUrGrCrArArGrCrCrGrUrCrCrArArGrUrCrCdTdT / antisense rGrGrArCrUrUrGrGrArCrGrGrCrUrUrGrCrArCdAdC	75.4%
sense rArUrCrUrCrCrArCrArUrCrCrGrCrCrCrGrGrCdTdT / antisense rGrCrCrGrGrGrCrGrGrArUrGrUrGrGrArGrArUdAdG	60.2%
sense rUrCrGrCrArGrArCrArUrUrCrUrGrCrCrCrCrGdTdT / antisense rCrGrGrGrGrCrArGrArArUrGrUrCrUrGrCrGrAdCdC	47.6%
sense rCrCrUrGrGrUrGrGrArCrCrUrCrArUrCrGrArAdTdT / antisense rUrUrCrGrArUrGrArGrGrUrCrCrArCrCrArGrGdGdG	81.7%
sense rGrCrCrUrArArGrCrArArGrArArGrCrUrGrCrGdTdT / antisense rCrGrCrArGrCrUrUrCrUrUrGrCrUrUrArGrGrCdGdC	85.7%
sense rGrGrGrCrArArGrArArGrCrArGrCrGrCrCrUrAdTdT / antisense rUrArGrGrCrGrCrUrGrCrUrUrCrUrUrGrCrCrCdTdG	93.3%
sense rCrCrUrArUrCrUrUrUrGrArCrCrCrCrArArGrGdTdT / antisense rCrCrUrUrGrGrGrGrUrCrArArArGrArUrArGrGdGdT	89.1%

Substance	normalised inhibition (eCFP-eYFP dual reporter)
sense rGrArCrCrArGrCrUrGrCrUrGrCrGrGrCrArGrCdTdT / antisense rGrCrUrGrCrCrGrCrArGrCrArGrCrUrGrGrUrCdCdA	55.2%
sense rGrCrCrGrUrCrCrArArGrUrCrCrGrUrGrCrArCdTdT / antisense rGrUrGrCrArCrGrGrArCrUrUrGrGrArCrGrGrCdTdT	66.1%
sense rCrCrCrGrUrGrCrUrGrUrArCrGrCrGrUrGrGrAdTdT / antisense rUrCrCrArCrGrCrGrUrArCrArGrCrArCrGrGrGdGdC	60.3%
sense rArCrGrArCrCrUrGrGrGrCrArGrCrCrGrCrUrUdTdT / antisense rArArGrCrGrGrCrUrGrCrCrCrArGrGrUrCrGrUdTdC	51.1%
sense rGrArArGrCrUrGrCrGrGrArGrGrArArGrUrUrAdTdT / antisense rUrArArCrUrUrCrCrUrCrCrGrCrArGrCrUrUrCdTdT	102%
sense rUrGrCrUrGrUrArCrGrCrGrUrGrGrArArCrGrAdTdT / antisense rUrCrGrUrUrCrCrArCrGrCrGrUrArCrArGrCrAdCdG	85.2%
sense rGrGrCrArUrGrGrUrGrUrGrCrArArGrCrCrGrUdTdT / antisense rArCrGrGrCrUrUrGrCrArCrArCrCrArUrGrCrCdCdT	79.1%
sense rGrCrArGrCrUrGrCrUrUrCrArGrUrArArGrCrGdTdT / antisense rCrGrCrUrUrArCrUrGrArArGrCrArGrCrUrGrCdCdC	63.1%
sense rArUrCrCrGrCrCrCrGrGrCrArCrCrCrArGrCrGdTdT / antisense rCrGrCrUrGrGrGrUrGrCrCrGrGrGrCrGrGrArUdGdT	42.7%
sense rGrCrGrGrCrArGrCrGrGrCrCrGrUrCrGrGrGrGdTdT / antisense rCrCrCrCrGrArCrGrGrCrCrGrCrUrGrCrCrGrCdAdG	70.5%
sense rGrArCrCrUrGrGrGrCrArGrCrCrGrCrUrUrUrUdTdT / antisense rArArArArGrCrGrGrCrUrGrCrCrCrArGrGrUrCdGdT	77.1%
sense rGrCrGrArGrArUrCrArArArGrGrGrCrUrArGrAdTdT / antisense rUrCrUrArGrCrCrCrUrUrUrGrArUrCrUrCrGrCdTdC	96.7%
sense rUrUrGrGrCrCrCrArGrGrGrCrArArGrArArGrCdTdT / antisense rGrCrUrUrCrUrUrGrCrCrCrUrGrGrGrCrCrArAdGdC	41.1%
sense rGrCrArGrCrCrGrCrUrUrUrUrGrGrCrCrGrCrGdTdT / antisense rCrGrCrGrGrCrCrArArArArGrCrGrGrCrUrGrCdCdC	46.4%
sense rCrArArGrGrArArArArGrGrArUrCrUrGrArArCdTdT / antisense rGrUrUrCrArGrArUrCrCrUrUrUrUrCrCrUrUrGdGdG	95.1%
sense rGrArArGrCrArGrCrGrCrCrUrArArGrCrArArGdTdT / antisense rCrUrUrGrCrUrUrArGrGrCrGrCrUrGrCrUrUrCdTdT	83%
